Blank lines part the entries; values can stand above or below the molecule they belong to.
Experiments:
CLR-RAMP3 [1] = target: T1, CLR-RAMP3 (Homo sapiens, UniProt O60896+Q16602); assay: β-arrestin1 recruitment to CLR-RAMP3 (BRET); details: HEK293T, n = 3
CLR-RAMP3 [2] = target: T1, CLR-RAMP3; assay: β-arrestin2 recruitment to CLR-RAMP3 (BRET); details: HEK293T, n = 3
CLR-RAMP1 [3] = target: T2, CLR-RAMP1 (Homo sapiens, UniProt O60894+Q16602); assay: β-arrestin2 recruitment to CLR-RAMP1 (BRET); details: HEK293T, n = 3
CLR-RAMP1 [4] = target: T2, CLR-RAMP1; assay: cAMP accumulation at CLR-RAMP1
CLR-RAMP1 [5] = target: T2, CLR-RAMP1; assay: Internalisation of CLR-RAMP1 (BRET CLR-Nluc / RIT-Venus); details: HEK293T, CLR-Nluc + FLAG-RAMP1, RIT-Venus BRET; mean ± SEM, n = 3-4
HEK293T cells = assay: cAMP accumulation in HEK293T cells with endogenous CLR and RAMPs; assay type: cell-based; details: far lower potency than expected of CLR with any RAMP
CLR-RAMP3 [6] = target: T1, CLR-RAMP3; assay: Internalisation of CLR-RAMP3 (BRET CLR-Nluc / RIT-Venus); details: HEK293T, CLR-Nluc + FLAG-RAMP3, RIT-Venus BRET; mean ± SEM, n = 4-5
CLR-RAMP1 [7] = target: T2, CLR-RAMP1; assay: β-arrestin1 recruitment to CLR-RAMP1 (BRET); details: HEK293T, n = 3
[8] = target: T3, CLR-Nluc in complex with FLAG-RAMP1 (CGRP receptor) (UniProt Q16602 23-461; O60894 27-148)
T3 construct: calcitonin-like receptor (CLR), direct C-terminal in-frame fusion to NanoLuc, in pcDNA3.1(-); receptor activity modifying protein 1 (RAMP1), pcDNA3.1(+)FLAG-RAMP, described in Weston et al., 2016 and Harris et al., 2021; Harris et al., 2021; also called CLR-RAMP1; calcitonin-like receptor with receptor activity modifying protein 1; source: HEK293T, transfected, in living cells; not shown: …

[9] = target: T4, CLR-Nluc in complex with FLAG-RAMP2 (adrenomedullin 1 receptor) (UniProt Q16602 23-461; O60895 43-175); assay: FRET or BRET; living HEK293T cells transfected with CLR-Nluc (donor), FLAG-RAMP1/2/3 and β-arrestin1/2-YFP (acceptor); 5 μM coelenterazine-h; stimulated with AM, 1 μM to 10 pM; BRET ratio 460/530 nm read for at least 20 min; details: partners not purified
T4 construct: calcitonin-like receptor (CLR), direct C-terminal in-frame fusion to NanoLuc, in pcDNA3.1(-); receptor activity modifying protein 2 (RAMP2), pcDNA3.1(+)FLAG-RAMP, described in Weston et al., 2016 and Harris et al., 2021; Harris et al., 2021; also called CLR-RAMP2; AM1R; source: HEK293T, transfected, in living cells; not shown: NanoLuc, C-terminal, kept; FLAG, N-terminal, kept
T4 sequence (Q16602 23-461, chain 1 of 2): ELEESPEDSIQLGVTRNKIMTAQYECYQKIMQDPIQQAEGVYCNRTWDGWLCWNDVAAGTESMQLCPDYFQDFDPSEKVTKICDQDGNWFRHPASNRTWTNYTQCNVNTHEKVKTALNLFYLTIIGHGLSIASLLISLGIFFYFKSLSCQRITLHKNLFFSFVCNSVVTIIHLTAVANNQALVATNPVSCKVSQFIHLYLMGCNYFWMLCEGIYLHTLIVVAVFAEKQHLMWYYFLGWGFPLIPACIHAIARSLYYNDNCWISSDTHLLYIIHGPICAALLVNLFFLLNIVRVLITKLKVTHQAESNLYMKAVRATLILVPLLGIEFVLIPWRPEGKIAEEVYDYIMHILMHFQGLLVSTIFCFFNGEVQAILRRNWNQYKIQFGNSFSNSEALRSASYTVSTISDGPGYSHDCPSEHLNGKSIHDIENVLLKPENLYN
T4 sequence (O60895 43-175, chain 2 of 2): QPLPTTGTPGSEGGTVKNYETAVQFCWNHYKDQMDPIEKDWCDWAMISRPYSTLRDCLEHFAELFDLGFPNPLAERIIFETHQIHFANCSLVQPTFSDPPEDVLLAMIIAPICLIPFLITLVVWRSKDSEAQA

T3 sequence (Q16602 23-461, chain 1 of 2): as the sequence (Q16602 23-461, chain 1 of 2) above
T3 sequence (O60894 27-148, chain 2 of 2): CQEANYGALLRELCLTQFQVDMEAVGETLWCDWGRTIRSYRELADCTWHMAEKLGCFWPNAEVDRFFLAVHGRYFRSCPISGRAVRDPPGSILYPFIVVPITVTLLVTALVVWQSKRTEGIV
T2 sequence (Q16602 23-461): as the sequence (Q16602 23-461, chain 1 of 2) above
T2 sequence (O60894 27-148): as the sequence (O60894 27-148, chain 2 of 2) above
T1 sequence (Q16602 23-461): as the sequence (Q16602 23-461, chain 1 of 2) above
T1 sequence (O60896 24-148): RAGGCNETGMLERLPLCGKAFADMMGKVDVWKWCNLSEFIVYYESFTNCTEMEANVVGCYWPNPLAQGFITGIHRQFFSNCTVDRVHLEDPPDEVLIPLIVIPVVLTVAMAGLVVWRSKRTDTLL

Emax, β-arrestin1 recruitment (CLR-RAMP3 [1]; CLR-Nluc + FLAG-RAMP3 + β-arrestin1-YFP, BRET, mean ± SEM): 8 ± 1 BRET units (x10^-3)
Emax, β-arrestin1 recruitment (CLR-RAMP3 [1]; GRK2 overexpressed): 6 ± 1 BRET units (x10^-3)
Emax, β-arrestin1 recruitment (CLR-RAMP3 [1]; GRK3 overexpressed): 5 ± 1 BRET units (x10^-3)
Emax, β-arrestin1 recruitment (CLR-RAMP3 [1]; GRK4 overexpressed): 4 ± 1 BRET units (x10^-3)
Emax, β-arrestin1 recruitment (CLR-RAMP3 [1]; GRK series: Vector): 7 ± 1 BRET units (x10^-3)
Emax, β-arrestin2 recruitment (CLR-RAMP3 [2]; CLR-Nluc + FLAG-RAMP3 + β-arrestin2-YFP, BRET, mean ± SEM): 11 ± 1 BRET units (x10^-3)
Emax, β-arrestin2 recruitment (CLR-RAMP3 [2]; GRK2 overexpressed): 8 ± 1 BRET units (x10^-3)
Emax, β-arrestin2 recruitment (CLR-RAMP3 [2]; GRK3 overexpressed): 11 ± 2 BRET units (x10^-3)
Emax, β-arrestin2 recruitment (CLR-RAMP3 [2]; GRK4 overexpressed): 8 ± 1 BRET units (x10^-3)
Emax, β-arrestin2 recruitment (CLR-RAMP3 [2]; GRK series: Vector): 11 ± 1 BRET units (x10^-3)
Emax, β-arrestin2 recruitment (CLR-RAMP1 [3]; CLR-Nluc + FLAG-RAMP1 + β-arrestin2-YFP, BRET, mean ± SEM): ~98 ± 10 BRET units (x10^-3)
Emax, β-arrestin2 recruitment (CLR-RAMP1 [3]; GRK2 overexpressed): ~54 ± 4 BRET units (x10^-3)
Emax, β-arrestin2 recruitment (CLR-RAMP1 [3]; GRK3 overexpressed): ~47 ± 3 BRET units (x10^-3)
Emax, β-arrestin2 recruitment (CLR-RAMP1 [3]; GRK4 overexpressed): ~48 ± 3 BRET units (x10^-3)
Emax, β-arrestin2 recruitment (CLR-RAMP1 [3]; GRK5 overexpressed): 11 ± 1 BRET units (x10^-3)
Emax, β-arrestin2 recruitment (CLR-RAMP1 [3]; GRK series: Vector): ~98 ± 10 BRET units (x10^-3)
Emax, cAMP accumulation (CLR-RAMP1 [4]; HEK293T, CLR-Nluc + FLAG-RAMP1, 30 min stimulation, LANCE ultra, mean ± SEM, n = 3-4): 84.7 ± 3.0 percentage 100 μM forskolin
Emax, cAMP accumulation (CLR-RAMP1 [4]; HEK293T, GRK2 overexpressed, 30 min, n = 3): 61.6 ± 3.7 percentage 100μM forskolin
Emax, cAMP accumulation (CLR-RAMP1 [4]; HEK293T, GRK3 overexpressed, 30 min, n = 3): 46.5 ± 2.9 percentage 100μM forskolin
Emax, cAMP accumulation (CLR-RAMP1 [4]; HEK293T, GRK4 overexpressed, 30 min, n = 3): 51.3 ± 5.3 percentage 100μM forskolin
Emax, cAMP accumulation (CLR-RAMP1 [4]; HEK293T, GRK5 overexpressed, 30 min, n = 3): 40.0 ± 4.8 percentage 100μM forskolin
Emax, cAMP accumulation (CLR-RAMP1 [4]; HEK293T, GRK6 overexpressed, 30 min, n = 3): 58.9 ± 7.4 percentage 100μM forskolin
Emax, cAMP accumulation (CLR-RAMP1 [4]; HEK293T, β-arrestin1 overexpressed, 500 μM IBMX, mean ± SEM, n = 4): 98.6 ± 2.4 percentage 100 μM forskolin
Emax, cAMP accumulation (CLR-RAMP1 [4]; HEK293T, β-arrestin2 overexpressed, 500 μM IBMX, mean ± SEM, n = 3-4): 99.3 ± 2.1 percentage 100 μM forskolin
Emax, cAMP accumulation (CLR-RAMP1 [4]; HEK293 cells, 500 μM IBMX, mean ± SEM, n = 4): 81.1 ± 7.9 percentage 100 μM forskolin
Emax, cAMP accumulation (CLR-RAMP1 [4]; HEK293Δβ-arr1/2 cells, 500 μM IBMX, mean ± SEM, n = 4): 89.0 ± 5.4 percentage 100 μM forskolin
Emax, cAMP accumulation (CLR-RAMP1 [4]; pre-treated with 100 μM barbadin, 30 min, mean ± SEM, n = 5-6): ~91.4 ± 5.5 percentage 100μM forskolin
Emax, cAMP accumulation (CLR-RAMP1 [4]; pre-treated with 1% DMSO, 30 min, mean ± SEM, n = 5-6): 88.0 ± 5.2 percentage 100μM forskolin
Emax, internalisation (CLR-RAMP1 [5]): ~-44 ± 42 BRET units (x10^-3)
Emax, internalisation (CLR-RAMP3 [6]): -5 ± 1 BRET units (x10^-3)
Emax, β-arrestin1 recruitment (CLR-RAMP1 [7]; CLR-Nluc + FLAG-RAMP1 + β-arrestin1-YFP, BRET, mean ± SEM): ~63 ± 14 BRET units (x10^-3)
Emax, β-arrestin1 recruitment (CLR-RAMP1 [7]; GRK2 overexpressed): ~57 ± 7 BRET units (x10^-3)
Emax, β-arrestin1 recruitment (CLR-RAMP1 [7]; GRK3 overexpressed): ~43 ± 5 BRET units (x10^-3)
Emax, β-arrestin1 recruitment (CLR-RAMP1 [7]; GRK4 overexpressed): ~39 ± 7 BRET units (x10^-3)
Emax, β-arrestin1 recruitment (CLR-RAMP1 [7]; GRK6 overexpressed): ~11 ± 2 BRET units (x10^-3)
Emax, β-arrestin1 recruitment (CLR-RAMP1 [7]; GRK series: Vector): ~63 ± 14 BRET units (x10^-3)
Molecule: CC[C@H](C)[C@H](NC(=O)[C@H](CCC(N)=O)NC(=O)[C@H](Cc1c[nH]cn1)NC(=O)[C@H](C)NC(=O)[C@H](CC(C)C)NC(=O)[C@H](CCCCN)NC(=O)[C@H](CCC(N)=O)NC(=O)[C@@H](NC(=O)[C@@H](NC(=O)[C@@H]1CSSC[C@H](NC(=O)CNC(=O)[C@H](Cc2ccccc2)NC(=O)[C@H](CO)NC(=O)[C@H](CCCNC(=N)N)NC(=O)[C@H](CC(C)C)NC(=O)CNC(=O)[C@H](CCC(N)=O)NC(=O)[C@H](Cc2ccccc2)NC(=O)[C@H](CC(N)=O)NC(=O)[C@H](CC(N)=O)NC(=O)[C@H](CCSC)NC(=O)[C@H](CO)NC(=O)[C@H](CCC(N)=O)NC(=O)[C@H](CCCNC(=N)N)NC(=O)[C@@H](N)Cc2ccc(O)cc2)C(=O)N[C@@H](CCCNC(=N)N)C(=O)N[C@@H](Cc2ccccc2)C(=O)NCC(=O)N[C@@H]([C@@H](C)O)C(=O)N1)[C@@H](C)O)C(C)C)C(=O)N[C@@H](Cc1ccc(O)cc1)C(=O)N[C@@H](CCC(N)=O)C(=O)N[C@@H](Cc1ccccc1)C(=O)N[C@H](C(=O)N[C@@H](CC(=O)O)C(=O)N[C@@H](CCCCN)C(=O)N[C@@H](CC(=O)O)C(=O)N[C@@H](CCCCN)C(=O)N[C@@H](CC(=O)O)C(=O)N[C@@H](CC(N)=O)C(=O)N[C@H](C(=O)N[C@@H](C)C(=O)N1CCC[C@H]1C(=O)N[C@@H](CCCNC(=N)N)C(=O)N[C@@H](CO)C(=O)N[C@@H](CCCCN)C(=O)N[C@H](C(=O)N[C@@H](CO)C(=O)N1CCC[C@H]1C(=O)N[C@@H](CCC(N)=O)C(=O)NCC(=O)N[C@@H](Cc1ccc(O)cc1)C(N)=O)[C@@H](C)CC)C(C)C)[C@@H](C)O [AM, adrenomedullin]
cAMP response via endogenous low levels of CLR and RAMPs (HEK293T cells): small response

cAMP accumulation, Emax, cells pretreated with DMSO (vehicle) (% of the response to 100 μM forskolin) [8]: 79.8
cAMP accumulation, Emax, cells pretreated with barbadin (% of the response to 100 μM forskolin) [8]: 47.2
cAMP accumulation, pEC50, cells pretreated with DMSO (vehicle) [8]: 6.34
cAMP accumulation, pEC50, cells pretreated with barbadin [8]: 4.93
Molecule: adrenomedullin 2 (from UniProt Q7Z4H4 101-148) (peptide)

pEC50 of AM for recruitment (BRET) [9]: 7.57 ± 0.17
B1: β-arrestin1-YFP (natural protein, UniProt P49407 1-418, looked up)
chain: MGDKGTRVFKKASPNGKLTVYLGKRDFVDHIDLVDPVDGVVLVDPEYLKERRVYVTLTCAFRYGREDLDVLGLTFRKDLFVANVQSFPPAPEDKKPLTRLQERLIKKLGEHAYPFTFEIPPNLPCSVTLQPGPEDTGKACGVDYEVKAFCAENLEEKIHKRNSVRLVIRKVQYAPERPGPQPTAETTRQFLMSDKPLHLEASLDKEIYYHGEPISVNVHVTNNTNKTVKKIKISVRQYADICLFNTAQYKCPVAMEEADDTVAPSSTFCKVYTLTPFLANNREKRGLALDGKLKHEDTNLASSTLLREGANREILGIIVSYKVKVKLVVSRGGLLGDLASSDVAVELPFTLMHPKPKEEPPHREVPENETPVDTNLIELDTNDDDIVFEDFARQRLKGMKDDKEEEEDGTGSPQLNNR
notes: β-arrestin1 with an in-frame C-terminal YFP (Mackie et al., 2019); source: HEK293T, transfected, in living cells; not shown: YFP, C-terminal, kept

Source: article PMC9001978, “Determining the Effects of Differential Expression of GRKs and β-arrestins on CLR-RAMP Agonist Bias” (Frontiers in Physiology, 2022)
